Test [1] relates to incidence of seizures in epileptic patients. Particulars: clinical trials (Bialer et al. 2002); cited from earlier work.
The next test has as its system DA neurons in the VTA. Description: Spontaneous DA cell firing in the VTA of anaesthetised rats (in vivo electrophysiology). Also on record: species or system rat. Particulars: mean ± SEM. From the text:
In the mesolimbic system, all clinically used neuroleptics initially increase the firing rate of dopaminergic neurons (Tung et al., 1991, J. Neural Transm. Gen Sect., 84(1-2), 53-64,). After chronic administration, such neuroleptics eventually (after 3-4 weeks of treatment) decrease the firing rate to below pre-treatment levels (Skarsfeldt 1992, Synapse, 10, 25-33; White and Wang 1983, Science, 221, 1054-1057). This inhibitory effect on dopaminergic neurones, which is believed to be mediated by a depolarization blockade, is thought to be of therapeutic significance to the antipsychotic effect of neuroleptics (Grace and Bunney 1986, J. Pharmacol. Exp. Ther. 238, 1092-1100). […] The presence of KCNQ subunits on DA neurons in the VTA in rodents is well-documented but their functionality is unknown (Saganich et al. 2001, J. Neurosci. 21(13)4609-4624; Cooper et al. 2001, J. Neurosci., 21(24)9529-9540).
Subjects. Male Wistar rats (Harlan, The Netherlands) weighing 270-340 g were used. The animals were housed under a 12-hr light/dark cycle under controlled conditions for regular in-door temperature (21±2° C.) and humidity (55±5%) with food and tap water available ad libitum.
Experimental procedure. The rats were anaesthetised with an intraperitoneal injection of chloral hydrate (400 mg/kg). A femoral vein catheter was then inserted for supplementary anaesthetic injections (100 mg/kg) and drug administration. Animals were then mounted in a stereotaxic frame, the skull was exposed, and a hole (0.5×0.5 cm) was drilled above the ventral tegmental area. Extracellular single-cell recordings were performed using electrodes pulled from glass capillaries and filled with 2% Pontamine Sky Blue in 2 M NaCl. The tip of the electrode was broken under microscopic control, yielding an impedance of 2.0-8.0 MΩ at 135 Hz. The electrode was then lowered into the brain, using a hydraulic microdrive, aimed at the following coordinates: 5.5-5.0 mm posterior to Bregma; 0.5-0.9 mm lateral to the midline. Extracellular action potentials were amplified, discriminated and monitored on an oscilloscope and an audiomonitor. Discriminated spikes were collected and analysed using Spike 2 software (Cambridge Electronic Design Ltd., Cambridge, UK) on a PC-based system connected to a CED 1401 interface unit (Cambridge Electronic Design Ltd.). Presumed dopaminergic neurons were typically found 7.0-8.5 mm beneath the brain surface and were characterised by (1) a slow and irregular firing pattern (0.5-10 Hz), and (2) triphasic action potentials with a predominant positive component, a negative component followed by a minor positive component, with an overall duration >2.5 ms (Bunney et al. 1973, J. Pharmacol. Exp. Ther., 185, 560-571.).
Administration of compounds. […] These i.v. doses match the s.c. dose range of 0-10 mg/kg.
Statistical analysis. Drug effects were assessed by statistical comparison of the mean firing rate calculated from the 2-3 min period immediately before the first drug administration (baseline) to the mean firing rate calculated from at least 60 s at the maximal drug effect. Data were analysed statistically by a one-way ANOVA followed by Student-Newman-Keuls posthoc test. A p-value less than 0.05 was considered significant.

In test [2] the test system is K(+) current in neuronal cells. Particulars: cited from earlier work.
In another test the test system is anticonvulsant tests. Particulars: oral and intraperitoneal administration, rats and mice (Rostock et al. 1996); cited from earlier work.
Test [3] relates to amphetamine-induced hyperactivity in the rat. Description: Amphetamine challenge: d-amphetamine induced hyperactivity in rats. In kind it is in vivo. Particulars: test substance s.c. 30 min before d-amphetamine sulphate 0.5 mg/kg, motility 2 hours, read-out: Amphetamine antagonism ED50 ± std. dev. From the text:
D-amphetamine administration to rodents stimulates an increase in locomotor activity via mesolimbic dopamine receptors in the nucleus accumbens. While psychostimulant psychosis may not model all forms of schizophrenia, it may have applicability to paranoid schizophrenia and non-schizophrenic psychotic disorders (Krystal et al. pp. 214-224 in Neurobiology of Mental Illness ISBN 0-19-511265-2). It is believed that inhibition of the amphetamine-induced increase in locomotor activity is a reliable method for the evaluation of compounds with an antipsychotic potential (Ögren et al., European J. Pharmacol. 1984, 102, 459-464). In the following experiment, it was tested if the inhibition of spontaneous DA neurons in the mesolimbic circuit that was assessed above, could be translated into behavioral antipsychotic endpoint.
Subjects. Male Wistar rats (Taconic, Denmark) weighing 170-240 g are used. The animals were housed under a 12-hr light/dark cycle under controlled conditions for regular in-door temperature (21±2° C.) and humidity (55±5%) with food and tap water available ad libitum. Eight rats were used at each dose level and in the parallel control group receiving the vehicle to the test compound plus d-amphetamine and the group receiving vehicle injections only.

As usually defined, the ED50 is the dose at which the effect has come halfway, by size or by number of responders.

On to `CCOC(=O)Nc1ccc(NCc2ccc(F)cc2)cc1N`, for which, in test [1], the “Incidence of seizures in epileptic patients” value is recorded as “shown effectiveness in reducing the incidence of seizures in epileptic patients”. Also, the “Spontaneous DA cell firing rate” value is 95.4 ± 5.0 (4) percentage of baseline firing rate in the test on DA neurons in the VTA (cumulated dose 0.3 mg/kg i.v.); 90.5 ± 4.6 (5) percentage of baseline firing rate in the test with DA neurons in the VTA (cumulated dose 1.0 mg/kg i.v.); 81.1 ± 5.1 (5) percentage of baseline firing rate in the test on DA neurons in the VTA (cumulated dose 2.0 mg/kg i.v.); 67.1 ± 3.7 (4) percentage of baseline firing rate in the test on DA neurons in the VTA (cumulated dose 4.0 mg/kg i.v.); 60.6 ± 0.7 (2) percentage of baseline firing rate with DA neurons in the VTA (cumulated dose 6.0 mg/kg i.v.). The “Activation of a K(+) current” value in test [2] is listed as “activate a K(+) current in neuronal cells”. Also, the “Activity in a range of anticonvulsant tests” value in the test with anticonvulsant tests was “active after oral and intraperitoneal administration in rats and mice in a range of anticonvulsant tests”. The ED50 in test [3] amounted to 2.3 mg/kg.

The record behind these values is patent US20090118285A1, “USE OF KCNQ-OPENERS FOR TREATING OR REDUCING THE SYMPTOMS OF SCHIZOPHRENIA” (H. Lundbeck A/S, priority 2006, published 2009).
